Patent publication US20250319063A1, “METHODS AND COMPOUNDS FOR RESTORING MUTANT P53 FUNCTION” (PMV PHARMACEUTICALS, INC., priority 2022, published 2025)
Read-outs that look alike come from different tables or passages of the source.

Assay: Single oral dose plasma pharmacokinetics in fasted and fed healthy subjects (food effect, ethnicity)
Type: in vivo, human
Conditions: for AUC % extrap: both fed and fasted conditions
Protocol: Compound 1 pharmacokinetics were analyzed in healthy subjects administered Compound 1 in a fasted state. A subject was considered fasted if the subject fasted overnight for at least 10 hours and water was permitted ad libitum except for 1 hour before and after drug administration. For fasted subjects, Compound 1 was administered with at least 8 ounces (240 mL) of water. Compound 1 pharmacokinetics were also analyzed in healthy subjects administered Compound 1 in a fed state. A subject was considered fed after consuming a high-fat meal 30 minutes prior to drug administration, and the meal was finished at least 5 minutes prior to drug administration. For both fasted and fed subjects, no food was permitted for at least 4 hours post-dose and water was permitted starting at 1 hour post-dose.
Subjects were healthy, non-smoking male and female Caucasian/non-Asian or Japanese participants 18 to 55 years of age with a BMI between […].
In Part 1 of the study, analysis was performed to compare 1000 mg Compound 1 in fed and fasted states. A dose of 1000 mg of Compound 1 consisted of two 500 mg tablets administered as a single oral dose. The analysis of Part 1 was performed at two separate time points in two different schemes (1A and 1B).
In scheme 1A, at period 1, Compound 1 analyzed in healthy subjects administered 1000 mg Compound 1 (n=3) in a fed state. Following a washout period of 7-9 days, these subjects were then administered 1000 mg Compound 1 in a fasted state.
Separately, in scheme 1B, at period 1, Compound 1 was analyzed in healthy subjects administered 1000 mg Compound 1 (n=3) in a fasted state. Following a washout period of 7-9 days, these subjects were then administered 1000 mg Compound 1 in a fed state.
In Part 2 of the study, analysis was performed to compare 2000 mg Compound 1 in fed and fasted states and also to compared ethnicity of Caucasian/non-Asian subjects and Japanese subjects. A dose of 2000 mg of Compound 1 consisted of four 500 mg tablets administered as a single oral dose.
For Caucasian/non-Asian subjects (n=20) the analysis was performed at two separate time points in two different schemes (2A and 2B). During scheme 2A, at period 1, Compound 1 was analyzed in subjects administered 2000 mg Compound 1 (n=10) in a fed state. Following a washout period of 7-9 days, at period 2, these subjects were then administered 2000 mg Compound 1 in a fasted state. Separately in scheme 2B, at period 1, Compound 1 was analyzed in subjects administered 2000 mg Compound 1 (n=10) in a fasted state. Following a washout period of 7-9 days, at period 2, these subjects were then administered 2000 mg Compound 1 in a fed state.
For Japanese subjects (n=6), Compound 1 pharmacokinetics were analyzed in subjects administered 2000 mg Compound 1 in a fasted state.
Blood for the analysis of study drug (Compound 1) and metabolite (M1) were collected.
Various pharmacokinetic (PK) parameters were determined for each subject. (Tables 9-12 and FIGS. 23-28).
Statistical analysis of Compound 1 plasma PK parameters were evaluated for food effects for Part 1 (Table 11) and Part 2 (Table 12). The log-transformed PK parameters were analyzed using an analysis of variance model with treatment (fed/fasted condition) and period as fixed effects and participant as a random effect.

[1] = 2000 mg oral, Fasted, Caucasian/Non-Asian
[2] = 2000 mg oral, Fed, Caucasian/Non-Asian

## CNC(=O)c1ccc(NCC#Cc2cc3c(N[C@@H]4CCN(C)C[C@@H]4F)cccc3n2CC(F)(F)F)c(OC)c1 [Compound 1, 4-((3-(4-(((3S,4R)-3-fluoro-1-methylpiperidin-4-yl)amino)-1-(2,2,2-trifluoroethyl)-1H-indol-2-yl)prop-2-yn-1-yl)amino)-3-methoxy-N-methylbenzamide]
1000 mg (Part 1)
  Plasma CL/F and Vz/F, fasted vs fed: slightly higher in the fasted condition
1000 mg and 2000 mg doses
  Mean plasma concentrations, fed vs fasted: higher for Caucasian/non-Asian participants under the fed condition compared to the fasted condition
1000 mg oral (Part 1)
  AUC0-inf, % Ratio (Fed/Fasted): 120.25%
  AUC0-last, % Ratio (Fed/Fasted): 120.21%
  Cmax, % Ratio (Fed/Fasted): 121.75%
1000 mg oral, Fasted (Part 1)
  AUC% extrap, GeoMean: 1.61%
  CL/F, GeoMean: 6.67 L/h
  λz, GeoMean: 0.0450 h⁻¹
1000 mg oral, Fed (Part 1)
  AUC0-last, GeoMean: 177 µg·h/mL
  AUC% extrap, GeoMean: 1.61%
  CL/F, GeoMean: 5.55 L/h
  λz, GeoMean: 0.0438 h⁻¹
1000 mg single dose
  increase of peak exposure (Cmax) with food (high-fat meal) vs fasted: approximately 22%
  increase of systemic exposure (AUC0-inf and AUC0-last) with food (high-fat meal) vs fasted: approximately 20%
1000 mg
  AUC % extrap: less than 5%
2000 mg oral (Part 2)
  AUC0-inf, % Ratio (Fed/Fasted): 178.74%
  AUC0-last, % Ratio (Fed/Fasted): 172.94%
  Cmax, % Ratio (Fed/Fasted): 183.82%
[1]
  AUC% extrap, GeoMean: 3.42%
  CL/F, GeoMean: 7.71 L/h
  λz, GeoMean: 0.0348 h⁻¹
2000 mg oral, Fasted, Japanese
  AUC0-last, GeoMean: 326 µg·h/mL
  AUC% extrap, GeoMean: 2.13%
  CL/F, GeoMean: 5.92 L/h
  λz, GeoMean: 0.0398 h⁻¹
[2]
  AUC0-last, GeoMean: 448 µg·h/mL
  AUC% extrap, GeoMean: 4.74%
  CL/F, GeoMean: 4.18 L/h
  λz, GeoMean: 0.0306 h⁻¹
2000 mg single dose
  increase of AUC0-inf with food (high-fat meal) vs fasted: 79%
  increase of AUC0-last with food (high-fat meal) vs fasted: 73%
  increase of peak exposure (Cmax) with food (high-fat meal) vs fasted: approximately 84%
2000 mg, Caucasian/non-Asian (Part 2)
  Plasma CL/F and Vz/F, fasted vs fed: slightly higher in the fasted condition
2000 mg, Caucasian/non-Asian
  AUC % extrap: less than 17%
2000 mg, fasted
  Mean plasma concentrations, Japanese vs Caucasian/non-Asian: higher in Japanese participants compared to Caucasian/non-Asian participants
  Plasma CL/F and Vz/F, Japanese vs Caucasian/non-Asian: numerically lower for Japanese participants
  peak exposure (Cmax) and systemic exposure (AUC), Japanese vs Caucasian/non-Asian: numerically higher in Japanese participants
Caucasian/non-Asian participants
  maximum exposure (Cmax) and systemic exposure (AUC), fed vs fasted: higher under fed conditions (high-fat meal) compared to fasted conditions
Both sexes, human, plasma, po, 1000 mg, 1000 mg oral, Fasted (Part 1), read-out: AUC0-24, GeoMean
  AUC(0-t): 97.9 µg·h/mL
Both sexes, human, plasma, po, 1000 mg, 1000 mg oral, Fasted (Part 1), read-out: AUC0-96, GeoMean
  AUC(0-t): 148 µg·h/mL
Both sexes, human, plasma, po, 1000 mg, 1000 mg oral, Fasted (Part 1), read-out: AUC0-inf, GeoMean
  AUC(0-inf): 150 µg·h/mL
Both sexes, human, plasma, po, 1000 mg, 1000 mg oral, Fasted (Part 1), read-out: AUC0-inf, Geometric Mean (analysis of variance model)
  AUC(0-inf): 150 µg·h/mL
Both sexes, human, plasma, po, 1000 mg, 1000 mg oral, Fasted (Part 1), read-out: AUC0-last, GeoMean
  AUC(0-t): 147 µg·h/mL
Both sexes, human, plasma, po, 1000 mg, 1000 mg oral, Fasted (Part 1), read-out: AUC0-last, Geometric Mean (analysis of variance model)
  AUC(0-t): 147 µg·h/mL
Both sexes, human, plasma, po, 1000 mg, 1000 mg oral, Fasted (Part 1), read-out: Cmax, GeoMean
  Cmax: 8690 ng/mL
Both sexes, human, plasma, po, 1000 mg, 1000 mg oral, Fasted (Part 1), read-out: Cmax, Geometric Mean (analysis of variance model)
  Cmax: 8690 ng/mL
Both sexes, human, plasma, po, 1000 mg, 1000 mg oral, Fasted (Part 1), read-out: Tmax, Median
  Tmax: 2.27 h
Both sexes, human, plasma, po, 1000 mg, 1000 mg oral, Fasted (Part 1), read-out: Tmax, Minimum, Maximum
  Tmax: 1.54 to 2.51 h
Both sexes, human, plasma, po, 1000 mg, 1000 mg oral, Fasted (Part 1), read-out: Vz/F, GeoMean
  Vd/F: 148 L
Both sexes, human, plasma, po, 1000 mg, 1000 mg oral, Fasted (Part 1), read-out: t½, GeoMean (converted)
  half-life: 15.4 h
Both sexes, human, plasma, po, 1000 mg, 1000 mg oral, Fed (Part 1), read-out: AUC0-24, GeoMean
  AUC(0-t): 119 µg·h/mL
